Data published in paper PMC4875962 (Clinical Pharmacokinetics, 2015).

Legend:
Metabolic CYP enzymes = details: cited from earlier work
[1] = after multiple doses; cited from earlier work
Transporters = details: cited from earlier work
platelet aggregation = details: day 2 ratio (90 % CI 68.20–71.62); data on file

Compound | Metabolic CYP enzymes inhibited (Metabolic CYP enzymes) | Transporters inhibited (Transporters) | other results
COc1ccc2nc([S@@+]([O-])Cc3ncc(C)c(OC)c3C)[nH]c2c1 [Esomeprazole] | 2C9, 2C19 (competitive) | – | gastric pH [1]: approximately 5
CC(=O)N1CCN(c2ccc(OCC3COC(Cn4ccnc4)(c4ccc(Cl)cc4Cl)O3)cc2)CC1 (stereo not shown) [Ketoconazole] | Strong 3A4; weak 2C8, 2C19 | P-gp | –
COc1ccc2cc([C@H](C)C(=O)O)ccc2c1 [Naproxen] | – | – | baseline-corrected ratio for platelet aggregation (platelet aggregation): 69.89%
C=C[C@H]1C[N@@]2CC[C@H]1C[C@@H]2[C@@H](O)c1ccnc2ccc(OC)cc12 [Quinidine] | Strong 2D6 | P-gp; OCT2 | –
CCCCc1oc2ccc(NS(C)(=O)=O)cc2c1C(=O)c1ccc(OCCCN(CCCC)CCCC)cc1 [Dronedarone] | Moderate 3A4 | P-gp | –
CO[C@H]1/C=C/O[C@@]2(C)Oc3c(C)c(O)c4c(O)c(c(/C=N/N5CCN(C)CC5)c(O)c4c3C2=O)NC(=O)/C(C)=C\C=C\[C@H](C)[C@H](O)[C@@H](C)[C@@H](O)[C@@H](C)[C@H](OC(C)=O)[C@@H]1C [Rifampin] | – | – | Transporters induced (Transporters): P-gp
